From patent publication US9573911B2, “Diphosphate mimetics and uses thereof” (President and Fellows of Harvard College, priority 2011, dated 2017)
Read-outs that look alike come from different tables or passages of the source.

Tests used:
Assay type in all cases: biochemical
RPS6KA3 (RSK2) = molecular target: T1, RPS6KA3 (RSK2) (Homo sapiens, UniProt P51812); assay: Further kinase screen, Invitrogen Z'-LYTE; details: Table 3
T1 construct: purchased Invitrogen
Protocol: (§1) Kinase profiling was conducted using Invitrogen Z'-LYTE screening protocol and assay conditions found at www.invitrogen.com. Compound (2) inhibited PLK1 completely at 5 μM.
(§2) A further kinase screen was performed on Compounds (2), (4A), and (4B) using the assay described above.

OGT [1] = molecular target: T2, OGT (Homo sapiens, UniProt O15294); assay: Western blot of BZX inhibitor treated cell lysates (O-GlcNAcylation by added OGT); details: MCF-10A ErbB2 cell lysates; OGT 2 μM, UDP-GlcNAc 1 mM, BZX inhibitors 200 μM
T2 construct: hOGT4.5 construct (spanning residues 313-1031 based on the numbering of the full length human protein); made in house
T2 sequence (O15294 313-1031 isoform O15294-3): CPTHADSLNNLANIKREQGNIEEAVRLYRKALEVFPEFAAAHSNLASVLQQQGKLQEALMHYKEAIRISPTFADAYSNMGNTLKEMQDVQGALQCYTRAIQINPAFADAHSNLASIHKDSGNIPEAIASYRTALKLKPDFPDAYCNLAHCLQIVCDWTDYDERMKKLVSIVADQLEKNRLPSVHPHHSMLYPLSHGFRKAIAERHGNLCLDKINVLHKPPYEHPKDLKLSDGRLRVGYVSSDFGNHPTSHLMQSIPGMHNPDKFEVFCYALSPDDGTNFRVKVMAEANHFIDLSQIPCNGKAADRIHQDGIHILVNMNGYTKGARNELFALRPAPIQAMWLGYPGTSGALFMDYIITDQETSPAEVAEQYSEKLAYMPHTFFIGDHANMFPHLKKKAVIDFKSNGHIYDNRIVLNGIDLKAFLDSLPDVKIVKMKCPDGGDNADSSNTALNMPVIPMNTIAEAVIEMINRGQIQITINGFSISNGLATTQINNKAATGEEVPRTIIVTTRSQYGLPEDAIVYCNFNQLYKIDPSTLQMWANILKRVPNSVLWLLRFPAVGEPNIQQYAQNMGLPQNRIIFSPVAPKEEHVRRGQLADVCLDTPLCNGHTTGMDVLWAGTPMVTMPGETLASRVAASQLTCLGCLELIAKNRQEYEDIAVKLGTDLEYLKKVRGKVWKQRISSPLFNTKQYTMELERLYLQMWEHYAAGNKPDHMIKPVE
Protocol: […] ErbB2 cells were maintained in DMEM/F12 (Invitrogen) supplemented with 5% horse serum (Invitrogen), 20 ng/ml EGF (Peprotech), 10 μg/ml insulin (Sigma), 100 ng/ml cholera toxin (Sigma), […] hydrocortisone (Sigma), 50 U/ml penicillin, and 50 μg/ml streptomycin (Invitrogen) to reach 70% confluence. The cells were then grown for another 9 hours in glucose starvation medium (DMEM-no glucose (Invitrogen) supplemented with 1% horse serum, 50 U/ml penicillin and 50 μg/ml streptomycin) before harvest. The cell lysates, prepared as described above, were divided into four tubes with each tube containing the same amount of protein. Nothing was added to tube I; OGT (2 μM) and DMSO (1%) were added into tube II; OGT (2 μM) and (2) (200 μM) were added to tube III; OGT (2 μM) and 1 (200 μM) were added to tube IV. The four samples were incubated at room temperature for 30 min before adding UDP-GlcNAc (1 mM) and incubated for another 2 hours. After incubation, all samples were analyzed with SDS-PAGE and a Western blot was carried out using the anti-O-GlcNAc antibody as described above.

OGT [2] = molecular target: T2, OGT; assay: IC50 assay, OGT peptide-capture assay
Protocol: IC50 Assay of Thiocarbamate to OGT.
Enzyme activity was tested with the peptide-capture assay in the presence of different concentrations of each compound as previously reported (J. Am. Chem. Soc. 2005, 127, 14588-14589).

PLK1 = molecular target: T3, PLK1 (Homo sapiens, UniProt P53350); assay: Kinase profiling, Invitrogen Z'-LYTE; details: for inhibition at 5 µM / % Inhibition Point 1 / % Inhibition Point 2 / % Inhibition mean: PLK1; for inhibition at 5 µM: Table 2; for % Inhibition Point 1 / % Inhibition Point 2 / % Inhibition mean: Table 3 further screen
T3 construct: purchased Invitrogen
T3 sequence (P53350 whole entry): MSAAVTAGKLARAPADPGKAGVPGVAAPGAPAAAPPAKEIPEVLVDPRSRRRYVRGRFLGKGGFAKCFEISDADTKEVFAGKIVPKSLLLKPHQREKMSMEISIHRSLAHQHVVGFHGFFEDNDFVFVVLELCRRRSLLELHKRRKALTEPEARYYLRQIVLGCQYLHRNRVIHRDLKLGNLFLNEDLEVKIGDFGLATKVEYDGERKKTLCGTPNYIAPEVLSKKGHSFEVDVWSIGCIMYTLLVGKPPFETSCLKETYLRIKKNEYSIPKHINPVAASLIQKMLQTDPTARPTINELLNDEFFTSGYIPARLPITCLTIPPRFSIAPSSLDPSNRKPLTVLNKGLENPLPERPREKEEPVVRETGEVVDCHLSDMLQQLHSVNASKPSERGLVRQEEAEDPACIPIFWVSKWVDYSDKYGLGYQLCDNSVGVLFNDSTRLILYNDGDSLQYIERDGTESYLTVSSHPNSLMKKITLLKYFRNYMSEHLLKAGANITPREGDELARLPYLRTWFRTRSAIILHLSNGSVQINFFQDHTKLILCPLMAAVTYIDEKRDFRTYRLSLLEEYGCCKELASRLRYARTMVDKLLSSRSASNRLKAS
Protocol: as §1, §2

ADRBK1 (GRK2) = molecular target: T4, ADRBK1 (GRK2) (Homo sapiens, UniProt P25098); assay: Kinase profiling, Invitrogen Z'-LYTE
T4 construct: purchased Invitrogen
T4 sequence (P25098 1-689): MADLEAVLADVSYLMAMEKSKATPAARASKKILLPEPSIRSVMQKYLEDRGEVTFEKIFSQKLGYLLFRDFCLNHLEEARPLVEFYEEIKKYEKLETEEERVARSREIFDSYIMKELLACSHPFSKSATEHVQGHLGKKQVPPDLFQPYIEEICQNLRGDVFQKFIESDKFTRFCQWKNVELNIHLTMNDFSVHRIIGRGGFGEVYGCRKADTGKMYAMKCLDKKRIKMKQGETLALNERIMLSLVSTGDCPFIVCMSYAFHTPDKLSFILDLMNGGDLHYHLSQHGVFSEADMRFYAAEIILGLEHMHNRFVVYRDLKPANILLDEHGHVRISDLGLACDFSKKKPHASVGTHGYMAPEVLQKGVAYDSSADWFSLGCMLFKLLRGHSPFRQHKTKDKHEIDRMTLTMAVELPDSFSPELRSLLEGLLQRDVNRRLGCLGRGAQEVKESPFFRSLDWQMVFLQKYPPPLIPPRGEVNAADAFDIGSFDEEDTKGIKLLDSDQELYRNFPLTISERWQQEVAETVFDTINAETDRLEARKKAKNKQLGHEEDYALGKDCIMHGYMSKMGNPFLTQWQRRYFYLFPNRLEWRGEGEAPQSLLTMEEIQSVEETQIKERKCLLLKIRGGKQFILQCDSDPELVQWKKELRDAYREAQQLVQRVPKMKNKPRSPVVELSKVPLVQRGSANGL
Protocol: as §1, §2

MARK3 = molecular target: T5, MARK3 (Homo sapiens, UniProt P27448); assay: Further kinase screen, Invitrogen Z'-LYTE; details: Table 3
T5 construct: purchased Invitrogen
T5 sequence (P27448 whole entry): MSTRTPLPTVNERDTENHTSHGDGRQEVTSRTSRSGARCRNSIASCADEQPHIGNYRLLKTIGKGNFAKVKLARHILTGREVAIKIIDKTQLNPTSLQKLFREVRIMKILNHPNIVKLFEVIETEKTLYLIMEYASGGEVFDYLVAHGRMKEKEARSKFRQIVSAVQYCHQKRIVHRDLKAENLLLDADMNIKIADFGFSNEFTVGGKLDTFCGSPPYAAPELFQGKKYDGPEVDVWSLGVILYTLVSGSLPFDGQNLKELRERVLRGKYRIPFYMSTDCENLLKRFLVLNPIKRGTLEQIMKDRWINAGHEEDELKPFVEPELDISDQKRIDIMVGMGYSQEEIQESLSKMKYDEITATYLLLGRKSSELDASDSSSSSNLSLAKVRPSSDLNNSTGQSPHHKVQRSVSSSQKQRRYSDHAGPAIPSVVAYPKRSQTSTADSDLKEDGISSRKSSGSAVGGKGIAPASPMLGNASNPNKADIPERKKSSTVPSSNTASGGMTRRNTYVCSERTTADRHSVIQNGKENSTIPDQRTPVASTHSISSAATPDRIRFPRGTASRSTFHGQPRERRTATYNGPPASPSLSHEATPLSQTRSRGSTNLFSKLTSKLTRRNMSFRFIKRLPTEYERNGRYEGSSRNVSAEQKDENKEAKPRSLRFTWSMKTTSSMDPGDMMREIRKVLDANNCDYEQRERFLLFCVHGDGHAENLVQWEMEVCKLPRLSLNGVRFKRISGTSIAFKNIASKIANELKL
Protocol: as §1, §2

[3] = peptide-capture assay, different concentrations of each compound, read-out: IC50 Values

T1 sequence (P51812 whole entry): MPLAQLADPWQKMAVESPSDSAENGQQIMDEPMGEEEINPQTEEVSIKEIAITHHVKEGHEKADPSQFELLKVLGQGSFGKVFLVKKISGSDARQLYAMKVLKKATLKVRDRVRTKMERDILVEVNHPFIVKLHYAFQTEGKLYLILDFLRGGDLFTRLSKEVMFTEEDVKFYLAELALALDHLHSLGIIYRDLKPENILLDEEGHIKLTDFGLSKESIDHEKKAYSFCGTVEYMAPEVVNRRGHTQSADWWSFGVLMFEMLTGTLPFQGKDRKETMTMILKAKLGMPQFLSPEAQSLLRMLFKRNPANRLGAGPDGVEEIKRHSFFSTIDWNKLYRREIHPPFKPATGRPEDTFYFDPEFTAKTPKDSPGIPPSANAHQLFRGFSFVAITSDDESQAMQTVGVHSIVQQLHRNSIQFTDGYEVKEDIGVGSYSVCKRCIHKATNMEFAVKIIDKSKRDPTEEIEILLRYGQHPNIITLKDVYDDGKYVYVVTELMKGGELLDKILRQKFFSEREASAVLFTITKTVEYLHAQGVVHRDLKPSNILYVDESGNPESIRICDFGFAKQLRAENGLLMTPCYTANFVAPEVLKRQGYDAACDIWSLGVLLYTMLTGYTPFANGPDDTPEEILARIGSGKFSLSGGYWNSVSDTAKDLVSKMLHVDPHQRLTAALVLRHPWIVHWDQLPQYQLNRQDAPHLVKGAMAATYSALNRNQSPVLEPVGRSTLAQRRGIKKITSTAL

COc1ccc(OC(=O)n2c(=O)oc3cc(C(C)=O)ccc32)cc1 [Compound 2]
% Inhibition Point 1 (RPS6KA3 (RSK2)): −200%
% Inhibition Point 2 (RPS6KA3 (RSK2)): −212%
% Inhibition mean (RPS6KA3 (RSK2)): −206%
inhibition of OGT activity (O-GlcNAcylation) in cell lysates (OGT [1]): more potent inhibitor of OGT activity than compound (1)
IC50 (OGT [2]; [3]): 2 µM
IC50 (OGT [2]; read-out: apparent IC50): 1.6 ± 1.1 µM
PLK1 inhibition (PLK1; 5 μM): completely
inhibition at 5 µM (PLK1; 5 μM, read-out: % Inhibition Point 1): 104%
inhibition at 5 µM (PLK1; 5 μM, read-out: % Inhibition Point 2): 104%
inhibition at 5 µM (PLK1; 5 μM, read-out: % Inhibition mean): 104%
% Inhibition Point 1 (PLK1): 101%
% Inhibition Point 2 (PLK1): 101%
% Inhibition mean (PLK1): 101%
% Inhibition Point 1 (ADRBK1 (GRK2); Table 2): 2%
% Inhibition Point 2 (ADRBK1 (GRK2); Table 2): 5%
% Inhibition mean (ADRBK1 (GRK2); Table 2): 4%
% Inhibition Point 1 (ADRBK1 (GRK2); Table 3 further screen): 4%
% Inhibition Point 2 (ADRBK1 (GRK2); Table 3 further screen): 7%
% Inhibition mean (ADRBK1 (GRK2); Table 3 further screen): 5%

COc1ccc(OC(=S)n2c(=O)oc3cc(C(C)=O)ccc32)cc1 [Compound 4A]
% Inhibition Point 1 (RPS6KA3 (RSK2)): 55%
% Inhibition Point 2 (RPS6KA3 (RSK2)): 56%
% Inhibition mean (RPS6KA3 (RSK2)): 55%
% Inhibition Point 1 (MARK3): 8%
% Inhibition Point 2 (MARK3): 12%
% Inhibition mean (MARK3): 10%
IC50 (OGT [2]; [3]): 14 µM
% Inhibition Point 1 (PLK1): 70%
% Inhibition Point 2 (PLK1): 65%
% Inhibition mean (PLK1): 68%
% Inhibition Point 1 (ADRBK1 (GRK2); Table 3 further screen): 3%
% Inhibition Point 2 (ADRBK1 (GRK2); Table 3 further screen): 7%
% Inhibition mean (ADRBK1 (GRK2); Table 3 further screen): 5%

COc1ccc(OC(=O)n2c(=S)oc3cc(C(C)=O)ccc32)cc1 [Compound 4B]
% Inhibition Point 1 (RPS6KA3 (RSK2)): 58%
% Inhibition Point 2 (RPS6KA3 (RSK2)): 64%
% Inhibition mean (RPS6KA3 (RSK2)): 61%
% Inhibition Point 1 (MARK3): 34%
% Inhibition Point 2 (MARK3): 36%
% Inhibition mean (MARK3): 35%
IC50 (OGT [2]; [3]): ~100 µM
% Inhibition Point 1 (PLK1): 98%
% Inhibition Point 2 (PLK1): 101%
% Inhibition mean (PLK1): 100%
% Inhibition Point 1 (ADRBK1 (GRK2); Table 3 further screen): 7%
% Inhibition Point 2 (ADRBK1 (GRK2); Table 3 further screen): 6%
% Inhibition mean (ADRBK1 (GRK2); Table 3 further screen): 7%
